Measurements reported in ChEMBL document CHEMBL4152255, “Functionalized spirooxindole-indolizine hybrids: Stereoselective green synthesis and evaluation of anti-inflammatory effect involving TNF-α and nitrite inhibition” (2018).

Experiments:
Type in all cases: functional
Rattus norvegicus [1] = test: Anti-inflammatory activity against carrageenan-induced paw oedema in Wistar albino rat assessed as hind paw thickness at 50 mg/kg, po pretreated for 1 hr followed by carrageenan challenge measured immediately by caliper method (reference value: 3.58 +/- 0.34 millimeter)
Rattus norvegicus [2] = test: Anti-inflammatory activity against carrageenan-induced paw oedema in Wistar albino rat assessed as hind paw thickness at 50 mg/kg, po pretreated for 1 hr followed by carrageenan challenge measured after 5 hrs by caliper method (reference value: 8.37 +/- 0.64 millimeter)
Rattus norvegicus [3] = test: Anti-inflammatory activity against carrageenan-induced paw oedema in Wistar albino rat assessed as hind paw thickness at 50 mg/kg, po pretreated for 1 hr followed by carrageenan challenge measured after 3 hrs by caliper method (reference value: 8.45 +/- 0.64 millimeter)
Rattus norvegicus [4] = test: Anti-inflammatory activity against carrageenan-induced paw oedema in Wistar albino rat assessed as reduction in hind paw thickness at 50 mg/kg, po pretreated for 1 hr followed by carrageenan challenge measured after 5 hrs by caliper method relative to control; set-up: scale not given: the % may be the effect or the level left
Rattus norvegicus [5] = test: Anti-inflammatory activity in Wistar albino rat assessed as inhibition of cotton pellet-induced granuloma at 50 mg/kg administered once daily for 7 days measured on day 8 relative to control; set-up: scale not given: the % may be the effect or the level left
Rattus norvegicus [6] = test: Anti-inflammatory activity against carrageenan-induced paw oedema in Wistar albino rat assessed as reduction in PGE2 level at 50 mg/kg, po pretreated for 1 hr followed by carrageenan challenge by ELISA relative to control; set-up: scale not given: the % may be the effect or the level left
Mus musculus [7] = test: Antiinflammatory activity in mouse assessed as inhibition of croton oil-induced ear edema at 1 mg/ear administered topically pretreated for 1 hr followed by croton oil addition and measured after 4 hrs relative to control; set-up: scale not given: the % may be the effect or the level left
Rattus norvegicus [8] = test: Anti-inflammatory activity against carrageenan-induced paw oedema in Wistar albino rat assessed as reduction in nitrite level at 50 mg/kg, po pretreated for 1 hr followed by carrageenan challenge by Griess assay relative to control; set-up: scale not given: the % may be the effect or the level left
Rattus norvegicus [9] = test: Anti-inflammatory activity against carrageenan-induced paw oedema in Wistar albino rat assessed as reduction in hind paw thickness at 50 mg/kg, po pretreated for 1 hr followed by carrageenan challenge measured after 3 hrs by caliper method relative to control; set-up: scale not given: the % may be the effect or the level left
Rattus norvegicus [10] = test: Anti-inflammatory activity against carrageenan-induced paw oedema in Wistar albino rat assessed as reduction in TNFalpha level at 50 mg/kg, po pretreated for 1 hr followed by carrageenan challenge by ELISA relative to control; set-up: scale not given: the % may be the effect or the level left
Rattus norvegicus [11] = test: Anti-inflammatory activity against carrageenan-induced paw oedema in Wistar albino rat assessed as reduction in nitrite level at 10 mg/kg, po pretreated for 1 hr followed by carrageenan challenge by Griess assay relative to control; set-up: scale not given: the % may be the effect or the level left
Rattus norvegicus [12] = test: Anti-inflammatory activity in Wistar albino rat assessed as inhibition of cotton pellet-induced granuloma at 10 mg/kg administered once daily for 7 days measured on day 8 relative to control; set-up: scale not given: the % may be the effect or the level left
Rattus norvegicus [13] = test: Anti-inflammatory activity against carrageenan-induced paw oedema in Wistar albino rat assessed as reduction in TNFalpha level at 10 mg/kg, po pretreated for 1 hr followed by carrageenan challenge by ELISA relative to control; set-up: scale not given: the % may be the effect or the level left
Rattus norvegicus [14] = test: Anti-inflammatory activity against carrageenan-induced paw oedema in Wistar albino rat assessed as hind paw thickness at 10 mg/kg, po pretreated for 1 hr followed by carrageenan challenge measured immediately by caliper method (reference value: 3.58 +/- 0.34 millimeter)
Rattus norvegicus [15] = test: Anti-inflammatory activity against carrageenan-induced paw oedema in Wistar albino rat assessed as reduction in PGE2 level at 10 mg/kg, po pretreated for 1 hr followed by carrageenan challenge by ELISA relative to control; set-up: scale not given: the % may be the effect or the level left
Mus musculus [16] = test: Antiinflammatory activity in mouse assessed as inhibition of croton oil-induced ear edema at 0.5 mg/ear administered topically pretreated for 1 hr followed by croton oil addition and measured after 4 hrs relative to control; set-up: scale not given: the % may be the effect or the level left
Rattus norvegicus [17] = test: Anti-inflammatory activity against carrageenan-induced paw oedema in Wistar albino rat assessed as hind paw thickness at 10 mg/kg, po pretreated for 1 hr followed by carrageenan challenge measured after 5 hrs by caliper method (reference value: 8.37 +/- 0.64 millimeter)
Rattus norvegicus [18] = test: Anti-inflammatory activity against carrageenan-induced paw oedema in Wistar albino rat assessed as hind paw thickness at 10 mg/kg, po pretreated for 1 hr followed by carrageenan challenge measured after 3 hrs by caliper method (reference value: 8.45 +/- 0.64 millimeter)

Row | SMILES | Activity (Rattus norvegicus [1]) | Activity (Rattus norvegicus [2]) | Activity (Rattus norvegicus [3]) | further results
1 | O=C1/C(=C/c2ccc(F)cc2)CNCC12[C@@H](c1ccc(F)cc1)[C@@H]1CCCCN1[C@@]21C(=O)Nc2ccccc21 (some centres undefined) | 3.62 mm | 6.9 mm | 7.18 mm | –
2 | O=C1/C(=C/c2ccc(Cl)cc2)CNCC12[C@@H](c1ccc(Cl)cc1)[C@@H]1CCCCN1[C@@]21C(=O)Nc2ccccc21 (some centres undefined) | 3.62 mm | 8 mm | 8.16 mm | –
3 | Cc1ccc(/C=C2\CNCC3(C2=O)[C@@H](c2ccc(C)cc2)[C@@H]2CCCCN2[C@@]32C(=O)Nc3ccccc32)cc1 (some centres undefined) | 3.55 mm | 3.74 mm | 3.87 mm | Activity (Rattus norvegicus [4]): 55.3%; Activity (Rattus norvegicus [5]): 24.17 - 33.23%; Activity (Rattus norvegicus [6]): 35.23%; Activity (Mus musculus [7]): 47.53 - 54.53%; Activity (Rattus norvegicus [8]): 42.99%; Activity (Rattus norvegicus [9]): 54.07%; Activity (Rattus norvegicus [10]): 36.23%
4 | O=C1/C(=C/c2ccccc2Br)CNCC12[C@@H](c1ccccc1Br)[C@@H]1CCCCN1[C@@]21C(=O)Nc2ccccc21 (some centres undefined) | 3.54 mm | 6.2 mm | 7 mm | –
5 | COc1ccc(/C=C2\CNCC3(C2=O)[C@@H](c2ccc(OC)cc2)[C@@H]2CCCCN2[C@@]32C(=O)Nc3ccccc32)cc1 (some centres undefined) | 3.58 mm | 3.72 mm | 3.75 mm | Activity (Rattus norvegicus [4]): 55.54%; Activity (Rattus norvegicus [5]): 32.48 - 37.21%; Activity (Rattus norvegicus [6]): 34.1%; Activity (Mus musculus [7]): 48.32 - 49.02%; Activity (Rattus norvegicus [8]): 41.22%; Activity (Rattus norvegicus [9]): 55.61%; Activity (Rattus norvegicus [10]): 38.52%
6 | O=C1/C(=C/c2ccccc2F)CNCC12[C@@H](c1ccccc1F)[C@@H]1CCCCN1[C@@]21C(=O)Nc2ccccc21 (some centres undefined) | 3.61 mm | 6.13 mm | 6.53 mm | –
7 | Cc1ccccc1/C=C1\CNCC2(C1=O)[C@@H](c1ccccc1C)[C@@H]1CCCCN1[C@@]21C(=O)Nc2ccccc21 (some centres undefined) | 3.63 mm | 7.41 mm | 7.5 mm | –
8 | O=C1/C(=C/c2ccccc2Cl)CNCC12[C@@H](c1ccccc1Cl)[C@@H]1CCCCN1[C@@]21C(=O)Nc2ccccc21 (some centres undefined) | 3.59 mm | 7.18 mm | 6.54 mm | –
9 | O=C1/C(=C/c2ccc(Cl)cc2Cl)CNCC12[C@@H](c1ccc(Cl)cc1Cl)[C@@H]1CCCCN1[C@@]21C(=O)Nc2ccccc21 (some centres undefined) | 3.59 mm | 6.5 mm | 7.12 mm | –
10 | COc1cccc(/C=C2\CNCC3(C2=O)[C@@H](c2cccc(OC)c2)[C@@H]2CCCCN2[C@@]32C(=O)Nc3ccccc32)c1 (some centres undefined) | 3.61 mm | 7.62 mm | 8.1 mm | –
11 | COc1ccccc1/C=C1\CNCC2(C1=O)[C@@H](c1ccccc1OC)[C@@H]1CCCCN1[C@@]21C(=O)Nc2ccccc21 (some centres undefined) | 3.67 mm | 7 mm | 6.31 mm | –
12 | O=C1/C(=C/c2ccccc2)CNCC12[C@@H](c1ccccc1)[C@@H]1CCCCN1[C@@]21C(=O)Nc2ccccc21 (some centres undefined) | 3.61 mm | 6.98 mm | 7.21 mm | –
13 | O=C1/C(=C/c2ccc(Br)cc2)CNCC12[C@@H](c1ccc(Br)cc1)[C@@H]1CCCCN1[C@@]21C(=O)Nc2ccccc21 (some centres undefined) | 3.58 mm | 7.7 mm | 7.62 mm | –
14 | Cc1cccc(/C=C2\CNCC3(C2=O)[C@@H](c2cccc(C)c2)[C@@H]2CCCCN2[C@@]32C(=O)Nc3ccccc32)c1 (some centres undefined) | 3.58 mm | 7.82 mm | 8.16 mm | –
15 | COc1ccc2c(c1)c(CC(=O)O)c(C)n2C(=O)c1ccc(Cl)cc1 [INDOMETHACIN] | – | – | – | Activity (Rattus norvegicus [11]): 41.64%; Activity (Rattus norvegicus [12]): 39.7%; Activity (Rattus norvegicus [13]): 37.13%; Activity (Rattus norvegicus [14]): 3.61 mm; Activity (Rattus norvegicus [15]): 33.88%; Activity (Mus musculus [16]): 53.56%; Activity (Rattus norvegicus [17]): 3.83 mm; Activity (Rattus norvegicus [18]): 3.86 mm
